Source: patent US9744175B2, “Compositions of combinations of non-covalent DNA binding agents and anti-cancer and/or anti-inflammatory agents and their use in disease treatment” (INDUS PHARMACEUTICALS, INC., priority 2012, dated 2017)

Columns and labels:
Jurkat = test: Growth inhibition in tumor cell lines (Table 2); type: cell-based, human; settings: leukemia, PTEN deficiency
SW480 = test: Growth inhibition in tumor cell lines (Table 2); type: cell-based, human; settings: SW480, colon, KRAS mutation
Description: (§1) Three novel non-covalent DNA binding agents of the invention, NSC 718813, NSC 723734 and NSC 726260, are tested in five different EGFR-resistant, K-Ras mutant cancer cell lines. These cell lines represent colorectal (SW480, SW620 and HCT116) and breast cancer (MDA-MB-231 and […]).
(§2) The in vitro assays to evaluate the anticancer potential of non-covalent DNA binding agents were measured by using one or more of the assays described below.
(§3) Tumor cells are plated in 96 well plates at a density of 8,000 to 10,000 cells per well in 100 uL volume and grown overnight. On the second day, the cells are supplemented with medium containing an appropriate dilution of the compounds to be tested. The cells are treated with the test compounds for two more days and the growth medium was replaced with fresh medium containing 3% Alamar Blue, incubated for 2-3 hours and plates are read in a SpectraMax Gemini XS fluorescence plate reader (Molecular Devices).

SW620 = test: Growth inhibition in tumor cell lines (Table 2); type: cell-based, human; settings: SW620, colon, KRAS mutation
Description: as §1, §2, §3

HCT116 = test: Growth inhibition in tumor cell lines (Table 2); type: cell-based, human; settings: HCT116, colon, KRAS mutation, MLH1 deficiency
Description: as §1, §2, §3

CEM = test: Growth inhibition in tumor cell lines (Table 2); type: cell-based, human; settings: leukemia, PTEN deficiency
Description: as §1, §2, §3

MDA231 = test: Growth inhibition in tumor cell lines (Table 2); type: cell-based, human; settings: MDA231, breast, KRAS & BRAF (ERK+)
Description: as §1, §2, §3

MDA-MB-468 = test: Growth inhibition in tumor cell lines (Table 2); type: cell-based, human; settings: MDA-MB-468, breast, ERK+ (EGFR over expression), PTEN deficiency
Description: as §1, §2, §3

[1] = system: SW620 colon tumor xenograft; test: SW620 colon tumor xenograft model; type: in vivo, mice
H1299 (p53−) = test: siRNA inhibition of MMR functions, alamar blue growth inhibition; type: cell-based, human; settings: for Fold improvement in IC50, mlh1: mlh1 siRNA vs control; for Fold improvement in IC50, msh2: msh2 siRNA vs control; for IC50: no siRNA knock out, read-out: IC50, Control
Description: (§4) siRNA specific for different genes is purchased from Dharmacon (Thermo. Fisher Scientific Dharmacon Products, Lafayette, Colo. 80026) and the protocol recommended by the supplier is utilized. Confluent cells are trypsinized and 5000 cells are seeded in a well in the presence or absence of siRNA in 100 μL medium. The cells are incubated with siRNA for two days. A non-covalent DNA binding agent of the invention is added in a 10 μL volume and incubated for another 48 hours. After treatment with the agent, the medium is replaced with 1% alamar blue containing medium to measure fluorescence after two hours.
as §4, with “from Dharmacon (Thermo Fisher Scientific” for “from Dharmacon (Thermo. Fisher Scientific”, “two hours. […] The results are presented in FIGS. 14-18 (SEQ ID NO:3-12, respectively) and Table 7.” for “two hours.”

[2] = system: homologous recombination repair deficiencies; test: Synthetic lethality with homologous recombination repair deficiencies (FIG. 8); type: cell-based; settings: FIG. 8 legend
yeast rad57 mutation = test: Alamar Blue cell survival assay in yeast cells; type: cell-based
Description: The cells are diluted 100-fold in yeast complete medium. 100 μL of diluted cells are seeded in 96 well plates with or without a non-covalent DNA binding compound and incubated for 24 hours at 30° C. The following day, an equal volume of yeast complete medium containing 1% alamar blue is added and incubated at 30° C. for two hours. Fluorescence intensity is measured in a fluorescent reader to calculate the inhibition effect of non-covalent DNA binding agents in mutant and wild type yeast cells.
Yeast cells that carry mutations in different genes involved in homologous recombination (rad 50, rad51, rad52, and rad57) and nucleotide excision/double strand repair (rad1) are grown to stationary culture overnight.

[3] = system: tumor cells that have K-RAS mutations and/or PTEN or mismatch repair gene deficiencies; test: Growth inhibition, summary of potency in text; type: cell-based, human; settings: among the three compounds tested, tumor cell lines
Description: as §1, §2, §3

Row | SMILES | IC50 (Jurkat) [nM] | IC50 (SW480) [nM] | IC50 (SW620) [nM] | IC50 (HCT116) [nM] | IC50 (CEM) [nM] | IC50 (MDA231) [nM] | IC50 (MDA-MB-468) [nM] | Fold improvement in IC50, mlh1 (H1299 (p53−)) [fold] | Fold improvement in IC50, msh2 (H1299 (p53−)) [fold] | IC50 (H1299 (p53−)) [nM] | synthetic lethality with homologous recombination repair deficiencies [2] | further results
1 | COc1cc2c(cc1OCCCCCOc1cc3c(cc1OC)C(=O)N1CCC[C@H]1C(=O)N3)N=C[C@@H]1CCCN1C2=O [NSC 718813] | 17 ± 0.2 | 48 | 236 ± 37.2 | 17 | 51 ± 0.6 | 54 | 8 ± 1.2 | 1.3 | 1.9 | 600 | – | tumor burden in SW620 colon tumor xenograft model ([1]; Q1 Dx5 IV followed by Q4Dx3 IP administration): reduces tumor burden
2 | COc1cc2c(cc1OCCCCN1CCN(CCCCOc3cc4c(cc3OC)C(=O)N3CCC[C@H]3C=N4)CC1)N=C[C@@H]1CCCN1C2=O [NSC 723734] | 45 ± 4 | 575 | 175 ± 25 | 160 | 49 ± 0.8 | 394 | 22 ± 0.7 | 2.0 | 2.6 | 900 | synthetic lethal | dose-reduction index (DRI) of combination with cisplatin ([1]; SW620 colon tumor xenograft mouse model): significant dose-reduction index (DRI); quantitative analysis of combination with cisplatin ([1]; combination doses achieving >50% efficacy): synergistic with cisplatin; synergy with cisplatin in SW620 colon tumor xenograft mouse model ([1]; intermittent IP administration of the two drugs): excellent synergy with cisplatin; synergy with cisplatin at lower (minimally active) cisplatin dose ([1]; intermittent IP administration, SW620 xenograft in mice): synergistic with cisplatin and restores antitumor activity of cisplatin; activity in SW620 colon tumor xenograft model ([1]; intraperitoneal, once daily administration for 7 days): superior activity to NSC718813; reduction in SW620 colon tumor xenograft ([1]; intravenous and intraperitoneally administered): dose-dependent reduction
3 | COc1cc2c(cc1OCCCC(=O)Nc1ccc3ccc4cccc5ccc1c3c45)N=C[C@@H]1CCCN1C2=O [NSC 726260] | 114 ± 26.7 | 1080 | 1050 ± 50 | 550 | 161 ± 0.4 | 501 | 364 | – | – | – | synthetic lethal | IC50 (yeast rad57 mutation): 300 nM; IC50 [3]: ~1000 nM; pharmacological activity in SW620 colon tumor xenograft model ([1]; combined IV and IP administration): limited pharmacological activity
